Measured values reported in patent US4021557A, “11-Aminoalkyl-pyridobenzodiazepinones and salts thereof” (Boehringer Ingelheim GmbH, priority 1974, dated 1977).

Tests used:
[1] = tested on: acetylcholine-induced bronchospasm; assay: Antagonism to acetylcholine-provoked bronchospasm in anesthetized guinea pigs (Konzett and Rossler), i.v.; antiasthmatic / bronchospasmolytic activity; format: in vivo; details: guinea pig; for ED50: Cavia porcellus, iv, 20γ acetylcholine per kg i.v., graphic extrapolation, read-out: Bronchospasmolytic ED50 against acetylcholine-induced bronchospasm
Method: The antiasthmatic activity was tested as the antagonism to bronchospasm provoked by intravenous administration of 20γ of acetylcholine per kg body weight in anesthetized guinea pigs (according to method of Konzett and Rossler). From the average percentage decrease of the bronchospasm produced by administering various doses of the compounds of the […] invention an ED50 was determined by graphic extrapolation. The compounds were administered intravenously.

[2] = tested on: quantity of secretion; assay: Expectorant (secretolytic) activity in anesthetized guinea pigs (Perry et al, modified by Engelhorn et al), oral; format: in vivo; details: guinea pig, over 2 hours
Method: The expectorant activity was ascertained by the method of Perry et al, J. Pharmcol. exp. Therap. 73, 65 (1941), as modified by Engelhorn et al, Arzneim. Forsch. 21, 1045 (1971), on male guinea pigs (body weight from 450 to 550 gm), which has been anesthetized by intraperitoneal injection of a 25% urethane solution (1.0 gm/kg). The test compound was administered orally at the indicated dosage levels, each in 2 ml of distilled water, by means of an esophageal tube. 5 tests per dose. The increase in secretion was calculated from the quantity of fluid secreted over a period of 2 hours after administration of the test compound, as compared to the quantity secreted without administration of the test compound.

[3] = tested on: heart rate; assay: Effect on heart rate of the anesthetized cat after intravenous administration; format: in vivo; design: key to type of the reaction (heart rate): --: decrease in heart rate; details: i.v.; for ED10 (dose leading to a 10% alteration of the heart rate) / ED25 (dose leading to a 25% alteration of the heart rate): graphic extrapolation; for type of the reaction (heart rate): tested dosage range 250 - 4,000 γ/kg (A 12.5 - 16,000; W 125 - 4,000)
Method: The effect on the heart rate was tested on cats of both sexes (body weight between 2.3 and 3.5 kg) under chloralose-urethane anesthesia. The heart rate was continuously registered by means of a Grass-tachograph 7P4, controlled by the R-wave of the electrocardiogram. The test compound was injected through a catheter introduced into the vena femoralis.

[4] = Acute toxicity after i.v. administration in NMRI-mice (Litchfield and Wilcoxon); details: mouse, in vivo, iv, both sexes, deaths within 14 days, read-out: LD50 in the mouse after i.v. application
Method: The acute toxicity was determined with NMRI-mice of both sexes (body weight 20 gm) after intravenous administration of the compound. 0.1 ml of a 0.9% sodium chloride solution per 10gm of animal was used as the vehicle.

Compound | ED50 [1] [mg/kg] | Average duration of effective action in the ED50 range [1] [min] | percent change in quantity of secretion (increase) ([2]; dose 0.5 γ/kg) [%] | ED10 (dose leading to a 10% alteration of the heart rate) [3] | ED25 (dose leading to a 25% alteration of the heart rate) [3] | type of the reaction (heart rate) [3] | LD50 at 336 h [4] [mg/kg] | percent change in quantity of secretion (increase) ([2]; dose 5 γ/kg) [%]
CC(C)N(CCCN1c2ccccc2N(C)C(=O)c2cccnc21)C(C)C.Cl [J, 6,11-dihydro-11-(3'-diisopropylamino-n-propyl)-6-methyl-5H-pyrido[2,3-b][1,5]benzodiazepin-5one hydrochloride] | 0.0165 | 50 | 108 | 1,950 γ/kg | > 4,000 γ/kg | -- | 22.6 | 
CCN(CC)CCCN1c2ccccc2N(C)C(=O)c2cccnc21.Cl [A, 11-(3'-diethylamino-n-propyl)-6,11-dihydro-6-methyl-5H-pyrido[2,3-b][1,5]benzodiazepin-5-one hydrochloride] | 0.031 | > 130 | 80 | 2,100 γ/kg | > 16,000 γ/kg | -- | 62.3 | 114
